The data set in a line: API solubility in water. Type of data set: physicochemical.

Each structure is given as a SMILES string. In brackets after ≈: the same amount, converted by molar mass.

For `COC[C@H](NC(=O)c1cnc(C)s1)C(=O)N[C@@H](COC)C(=O)N[C@@H](Cc1ccccc1)C(=O)[C@@]1(C)CO1` [API, Oprozomib], the solubility is approximately 500 µg/mL (≈ 939 µM).

These data come from US9295708B2, “Modified release formulations for oprozomib” (Onyx Therapeutics, Inc., priority 2012, dated 2016).
